Laboratory results reported in DBAASP.
In brackets after ≈: the same amount, converted by molar mass. Each block holds one compound with its values, some of them ahead of it.

Assays:
Test in all cases: ≥ marks a high value that may be exact or a test limit, other limits are often not marked, values filed in µg/mL are converted to µM
Fusarium culmorum = tested on: Fusarium culmorum
Micrococcus luteus = tested on: Micrococcus luteus
Alternaria brassicicola = tested on: Alternaria brassicicola
Bacillus megaterium = tested on: Bacillus megaterium
Botrytis cinerea = tested on: Botrytis cinerea
Ascochyta pisi = tested on: Ascochyta pisi
Trichoderma viride = tested on: Trichoderma viride
Pediococcus acidilactici = tested on: Pediococcus acidilactici
Aerococcus viridans = tested on: Aerococcus viridans
Neurospora crassa = tested on: Neurospora crassa
Fusarium haematococcum = tested on: Fusarium haematococcum
Bacillus subtilis = tested on: Bacillus subtilis
Escherichia coli HB101 = tested on: Escherichia coli HB101
Pseudomonas aeruginosa = tested on: Pseudomonas aeruginosa
Staphylococcus aureus = tested on: Staphylococcus aureus
Salmonella typhimurium = tested on: Salmonella typhimurium
[1] = tested on: Mycobacterium tuberculosis CSU87
[2] = tested on: Mycobacterium tuberculosis H37Rv
[3] = tested on: Escherichia coli ATCC 2592
[4] = tested on: Micrococcus luteus ATCC 9341
[5] = tested on: Pseudomonas aeruginosa ATCC 9027
[6] = tested on: Staphylococcus aureus ATCC 6538
[7] = tested on: Staphylococcus aureus 1550
[8] = tested on: Candida albicans ATCC 36232

MIC (Fusarium culmorum): 14.1 µM (≈ 28.5 µg/mL)
MIC (Micrococcus luteus): 7.07 µM (≈ 14.3 µg/mL)
MIC (Alternaria brassicicola): 7.07 µM (≈ 14.3 µg/mL)
MIC (Bacillus megaterium): 7.07 µM (≈ 14.3 µg/mL)
MIC (Botrytis cinerea): 7.07 µM (≈ 14.3 µg/mL)
MIC (Ascochyta pisi): 28.3 µM (≈ 57.1 µg/mL)
MIC (Trichoderma viride): 28.3 µM (≈ 57.1 µg/mL)
MIC (Pediococcus acidilactici): 28.3 µM (≈ 57.1 µg/mL)
MIC (Aerococcus viridans): 3.54 µM (≈ 7.14 µg/mL)
MIC (Neurospora crassa): 14.1 µM (≈ 28.5 µg/mL)
MIC (Fusarium haematococcum): 7.07 µM (≈ 14.3 µg/mL)
SMILES: CC[C@H](C)[C@H](NC(=O)[C@@H](NC(=O)[C@@H]1CCCN1C(=O)[C@@H](NC(=O)[C@@H]1CCCN1C(=O)[C@H](CCCCN)NC(=O)[C@H](CCCCN)NC(=O)[C@H](CO)NC(=O)CN)C(C)C)[C@@H](C)CC)C(=O)N[C@@H](Cc1ccc(O)cc1)C(=O)N[C@H]1CSSC[C@@H](C(=O)O)NC(=O)[C@H](CCCCN)NC(=O)CNC(=O)[C@H]([C@@H](C)O)NC(=O)[C@H](CCCN=C(N)N)NC(=O)[C@H](CCCN=C(N)N)NC(=O)[C@H](CC(N)=O)NC1=O [GSKKPVPIIYCNRRTGKC]

MIC (Bacillus subtilis): 5.2 µM (≈ 12.1 µg/mL)
MIC (Escherichia coli HB101): 0.64 µM (≈ 1.49 µg/mL)
MIC (Pseudomonas aeruginosa): 2.6 µM (≈ 6.07 µg/mL)
MIC (Staphylococcus aureus): 10.4 µM (≈ 24.3 µg/mL)
MIC (Salmonella typhimurium): 1.3 µM (≈ 3.03 µg/mL)
SMILES: CC[C@H](C)[C@H](NC(=O)[C@@H](NC(=O)[C@@H]1CCCN1C(=O)[C@@H](NC(=O)[C@@H]1CCCN1C(=O)[C@H](CCCCN)NC(=O)[C@H](CCCCN)NC(=O)[C@H](CO)NC(=O)CN)C(C)C)[C@@H](C)CC)C(=O)N[C@@H](Cc1ccc(O)cc1)C(=O)N[C@H]1CSSC[C@@H](C(=O)N[C@@H](CCC(N)=O)C(=O)N[C@@H](CCCN=C(N)N)C(=O)N[C@@H](CCSC)C(=O)O)NC(=O)[C@H](CCCCN)NC(=O)CNC(=O)[C@H](CCCN=C(N)N)NC(=O)[C@H](CCCN=C(N)N)NC(=O)[C@H](CC(N)=O)NC1=O [GSKKPVPIIYCNRRGKCQRM]

MIC [1]: ≥ 112 µM
MIC [2]: ≥ 449 µM
SMILES: CSCC[C@H](NC(=O)[C@H](CCCCN)NC(=O)[C@H](CCCCN)NC(=O)[C@H](CC(C)C)NC(=O)[C@H](CC(C)C)NC(=O)[C@H](CCCCN)NC(=O)[C@H](CCCCN)NC(=O)[C@H](CC(C)C)NC(=O)[C@@H](N)CC(C)C)C(N)=O [LLKKLLKKM]

MIC [3]: 15 µM (≈ 19 µg/mL)
MIC [4]: 7.88 µM (≈ 10 µg/mL)
MIC [5]: 8.67 µM (≈ 11 µg/mL)
MIC [6]: 12.6 µM (≈ 16 µg/mL)
MIC [7]: ≥ 49.7 µM
MIC [8]: ≥ 78.8 µM
SMILES: CC(C)[C@H](NC(=O)[C@H](CCCCN)NC(=O)[C@H](Cc1ccccc1)NC(=O)[C@@H](NC(=O)[C@@H](NC(=O)[C@H](CCCCN)NC(=O)[C@@H](N)Cc1cnc[nH]1)C(C)C)C(C)C)C(=O)N[C@@H](CCCCN)C(=O)N[C@@H](Cc1ccccc1)C(=O)N[C@@H](Cc1cnc[nH]1)C(=O)O [HKVVFKVKFH]
